Data reported in paper PMC7582957, “A Fluorescence Polarization-Based High-Throughput Screen to Identify the First Small-Molecule Modulators of the Human Adenylyltransferase HYPE/FICD” (International Journal of Molecular Sciences, 2020).
Numbering of substitutions follows the chain as printed.

Tests used:
Format in all cases: biochemical
[1] = target: T1, Δ102 HYPE (HYPE103-456) (Homo sapiens, UniProt Q9BVA6); assay: fluorescence polarization autoAMPylation with Fl-ATP; details: activator; detergent-less minimal buffer 50 mM HEPES pH 7.5, 1 mM MnCl2, 25 nM Fl-ATP, 0.4 µM enzyme, room temperature; unreliable
T1 construct: gene FICD; aa 103-456, lacks TM domain and N-terminus; His6-SUMO tag cleaved by ULP1; pSMT3, E. coli BL21-DE3-RILP; cobalt and size-exclusion purified
T1 sequence (Q9BVA6 103-456): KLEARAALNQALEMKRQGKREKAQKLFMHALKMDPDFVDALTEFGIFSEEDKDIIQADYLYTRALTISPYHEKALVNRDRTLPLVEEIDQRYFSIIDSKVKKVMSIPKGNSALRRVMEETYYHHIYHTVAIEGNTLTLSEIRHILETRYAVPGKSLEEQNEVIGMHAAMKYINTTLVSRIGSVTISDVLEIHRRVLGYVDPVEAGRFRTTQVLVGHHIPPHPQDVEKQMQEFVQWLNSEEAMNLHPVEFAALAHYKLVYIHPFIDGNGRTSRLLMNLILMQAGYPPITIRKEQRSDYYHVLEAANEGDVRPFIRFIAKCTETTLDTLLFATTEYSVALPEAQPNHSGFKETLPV
Description: fluorescence polarization autoAMPylation with Fl-ATP on Δ102 HYPE (HYPE103-456) | robust dose-dependencies among all activators, with low micromolar EC50 values

[2] = target: T2, Δ102 HYPE (HYPE103-456) (Homo sapiens, UniProt Q9BVA6, E234G); assay: as above
T2 construct: gene FICD; aa 103-456, lacks TM domain and N-terminus; His6-SUMO tag cleaved by ULP1; pSMT3, E. coli BL21-DE3-RILP; cobalt and size-exclusion purified
T2 sequence (Q9BVA6 103-456 E234G): T1 sequence (Q9BVA6 103-456) with E132G
Description: fluorescence polarization autoAMPylation with Fl-ATP on Δ102 HYPE (HYPE103-456) | I1 and I3 were in the mid-micromolar range | we obtained a low micromolar inhibitory potency for I2

[3] = target: T3, Δ45 HYPE (Homo sapiens, UniProt Q9BVA6); assay: in-gel fluorescence autoAMPylation with Fl-ATP; details: activator; same, with 0.1% Triton X-100
T3 construct: gene FICD; aa 46-456, TM domain deleted; His6-SUMO tag cleaved by ULP1; pSMT3, E. coli BL21-DE3-RILP; cobalt and size-exclusion purified
T3 sequence (Q9BVA6 46-456): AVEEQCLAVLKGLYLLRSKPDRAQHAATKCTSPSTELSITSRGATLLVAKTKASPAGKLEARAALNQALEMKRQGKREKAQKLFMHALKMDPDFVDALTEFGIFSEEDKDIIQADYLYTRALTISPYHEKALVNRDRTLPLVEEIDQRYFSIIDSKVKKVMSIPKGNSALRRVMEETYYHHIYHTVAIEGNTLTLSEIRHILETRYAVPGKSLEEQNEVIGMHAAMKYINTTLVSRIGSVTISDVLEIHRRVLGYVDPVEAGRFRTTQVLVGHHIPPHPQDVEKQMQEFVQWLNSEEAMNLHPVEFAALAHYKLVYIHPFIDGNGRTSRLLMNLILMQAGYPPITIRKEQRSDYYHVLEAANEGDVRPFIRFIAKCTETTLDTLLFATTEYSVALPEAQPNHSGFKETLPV

EC50 [1] | IC50 [2] | Compound | other results
10.305 µM |  | CCCCCCCCCCCCCCCC[N+](C)(C)CCN(Cc1ccc(OC)cc1)c1ncccn1 [A5, Thonzonium Bromide] | 
15.415 µM |  | CCCCCCCCCCCCCCCC(O)C(N)CO (racemic) [A2, DL-erythro-dihydrosphingosine] | 
13.144 µM |  | CCCCC(CC)CN1CN(CC(CC)CCCC)CC(C)(N)C1 (stereo not shown) [A3, Hexetidine] | 
 | 22.5 µM | COc1cc(-c2ccc(N=Nc3ccc4c(S(=O)(=O)O)cc(S(=O)(=O)O)c(N)c4c3O)c(OC)c2)ccc1N=Nc1ccc2c(S(=O)(=O)O)cc(S(=O)(=O)O)c(N)c2c1O [I3, Chicago Sky Blue] | 
 | 30.4 µM | Cc1cc(-c2ccc(N=Nc3ccc4c(S(=O)(=O)O)cc(S(=O)(=O)O)c(N)c4c3O)c(C)c2)ccc1N=Nc1ccc2c(S(=O)(=O)O)cc(S(=O)(=O)O)c(N)c2c1O [I1, Evan’s Blue] | 
 | 0.347 µM | O=C(O)C1=CC(=C(c2ccc(O)c(C(=O)O)c2)c2ccc(O)c(C(=O)O)c2)C=CC1=O [I2, Aurintricarboxylic Acid] | 
 |  | CC(C)(C)c1ccc(-c2cc(C[C@H]3CNCC[C@H]3CC(=O)N3CCN(c4ccc(F)cc4)CC3)no2)cc1 [A6, NAT14–350426] | in-gel fluorescence autoAMPylation with Fl-ATP [3]: significant increase in bioactivity of A1 and A4–A6 (Figure 9D)
